Test results: PubChem BioAssay (NCI)
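Step 1: Grow cells in 96-well plates. Step 2: Expose to compound for 48 hours at 5 concentrations. Step 3: Interpolate endpoints linearly; if unreached, use highest concentration. TGI is the concentration that stops growth completely.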

Columns and labels:
Test in all cases: growth of human tumour cells (NCI), 48 h
[1] = system: NCI-H23 lung
[2] = system: SR leukemia
[3] = system: HS 578T breast
[4] = system: SK-MEL-2 melanoma
[5] = system: NCI/ADR-RES ovarian
[6] = system: KM12 colon
[7] = system: MOLT-4 leukemia
[8] = system: CAKI-1 renal
[9] = system: CCRF-CEM leukemia
[10] = system: MDA-MB-435
[11] = system: HCT-15 colon
[12] = system: BT-549 breast
[13] = system: SF-268 CNS
[14] = system: NCI-H226 lung
[15] = system: NCI-H522 lung
[16] = system: COLO 205 colon
[17] = system: DU-145 prostate
[18] = system: HOP-62 NSCLC
[19] = system: UO-31 renal
[20] = system: SW-620 colon
[21] = system: A549 NSCLC
[22] = system: MCF7 breast
[23] = system: NCI-H460 lung
[24] = system: SK-MEL-28 melanoma
[25] = system: SF-539 CNS
[26] = system: SF-295 CNS
[27] = system: 786-0 renal
[28] = system: LOX IMVI melanoma
[29] = system: T-47D breast
[30] = system: OVCAR-5 ovarian
[31] = system: ACHN renal
[32] = system: M14 melanoma
[33] = system: SN12C renal
[34] = system: A498 renal
[35] = system: SK-OV-3 ovarian
[36] = system: HCC-2998 colon
[37] = system: EKVX NSCLC
[38] = system: HOP-92 NSCLC
[39] = system: K-562 leukemia
[40] = system: OVCAR-8 ovarian
[41] = system: IGROV1 ovarian
[42] = system: MDA-MB-231 breast
[43] = system: RPMI-8226 leukemia
[44] = system: TK-10 renal
[45] = system: UACC-257 melanoma
[46] = system: UACC-62 melanoma
[47] = system: HT29 colon
[48] = system: OVCAR-3 ovarian
[49] = system: HCT-116 colon
[50] = system: MALME-3M melanoma
[51] = system: SK-MEL-5 melanoma
[52] = system: U251 CNS
[53] = system: HL-60(TB) leukemia
[54] = system: SNB-75 CNS
[55] = system: PC-3 prostate
[56] = system: MDA-N
[57] = system: OVCAR-4 ovarian
[58] = system: RXF 393 renal
[59] = system: SNB-19 CNS

**Q.** What does the source list for `C=C(C(=O)OC)N1C(=O)CC(C)C1=O` (stereo not drawn)?
**A.** TGI [1]: 33.5 µM; TGI [2]: 6.9 µM; TGI [3]: 71.2 µM; TGI [4]: 33.9 µM; TGI [5]: 36 µM; TGI [6]: 43.8 µM; TGI [7]: 10.7 µM; TGI [8]: 4.38 µM; TGI [9]: 4.62 µM; TGI [10]: 37.2 µM; TGI [11]: 23.6 µM; TGI [12]: 30.9 µM; TGI [13]: 36.4 µM; TGI [14]: 70.3 µM; TGI [15]: 5.05 µM; TGI [16]: 14.3 µM; TGI [17]: 29.8 µM; TGI [18]: 35.6 µM; TGI [19]: 26.1 µM; TGI [20]: 25.5 µM; TGI [21]: 44.2 µM; TGI [22]: 30.5 µM; TGI [23]: 35.1 µM; TGI [24]: 23.1 µM; TGI [25]: 36 µM; TGI [26]: > 72 µM; TGI [27]: 23.5 µM; TGI [28]: 19.1 µM; TGI [29]: 33.1 µM; TGI [30]: 29.8 µM; TGI [31]: 7.51 µM; TGI [32]: 29.6 µM; TGI [33]: 31.1 µM; TGI [34]: 36.8 µM; TGI [35]: 98.9 µM; TGI [36]: 31.4 µM; TGI [37]: 29.9 µM; TGI [38]: 3.98 µM; TGI [39]: 12.8 µM; TGI [40]: 43.1 µM; TGI [41]: 31.5 µM; TGI [42]: 34.1 µM; TGI [43]: 12.7 µM; TGI [44]: 17.7 µM; TGI [45]: 25.8 µM; TGI [46]: 29.6 µM; TGI [47]: 25.2 µM; TGI [48]: 22.4 µM; TGI [49]: 19.5 µM; TGI [50]: 5 µM; TGI [51]: 32.7 µM; TGI [52]: 35 µM; TGI [53]: 3.78 µM; TGI [54]: 36.2 µM; TGI [55]: 30.4 µM; TGI [56]: 28.9 µM; TGI [57]: 37.4 µM; TGI [58]: 26.1 µM; TGI [59]: 58.8 µM

**Q.** Which results are given for `C=C1c2nc3ccccc3n2C=C(c2ccc(C)cc2)N1c1ccccc1`?
**A.** TGI [1]: > 100 µM; TGI [2]: 6.82 µM; TGI [3]: > 30.6 µM; TGI [4]: > 46.1 µM; TGI [5]: > 29.1 µM; TGI [6]: 22 µM; TGI [7]: 99 µM; TGI [8]: > 100 µM; TGI [9]: > 54.8 µM; TGI [10]: 10.7 µM; TGI [11]: > 38 µM; TGI [12]: > 86.7 µM; TGI [13]: > 100 µM; TGI [14]: 15.3 µM; TGI [15]: 25.2 µM; TGI [16]: > 33.2 µM; TGI [17]: > 100 µM; TGI [18]: > 100 µM; TGI [19]: > 100 µM; TGI [20]: > 100 µM; TGI [21]: > 100 µM; TGI [22]: > 100 µM; TGI [23]: 27.1 µM; TGI [24]: > 100 µM; TGI [25]: 7.46 µM; TGI [26]: 13.6 µM; TGI [27]: > 59.9 µM; TGI [28]: 66 µM; TGI [29]: > 100 µM; TGI [30]: > 100 µM; TGI [31]: > 100 µM; TGI [32]: > 61.2 µM; TGI [33]: > 100 µM; TGI [34]: > 100 µM; TGI [35]: > 100 µM; TGI [36]: 10.7 µM; TGI [37]: > 40.6 µM; TGI [38]: > 100 µM; TGI [39]: > 100 µM; TGI [40]: > 63.4 µM; TGI [41]: > 100 µM; TGI [42]: > 53.6 µM; TGI [43]: > 34.5 µM; TGI [44]: > 100 µM; TGI [45]: > 100 µM; TGI [46]: > 100 µM; TGI [47]: 9.77 µM; TGI [48]: > 40.9 µM; TGI [49]: > 81 µM; TGI [50]: > 43.3 µM; TGI [51]: 31.9 µM; TGI [52]: 68.2 µM; TGI [53]: 16.3 µM; TGI [54]: 15.9 µM; TGI [55]: > 79.5 µM; TGI [56]: 4.39 µM; TGI [57]: > 100 µM; TGI [58]: > 44 µM; TGI [59]: > 100 µM
